Assay results reported in ChEMBL document CHEMBL1146720, “Bicyclic anti-VZV nucleosides: thieno analogues bearing an alkylphenyl side chain have reduced antiviral activity” (Bioorg Med Chem Lett, 2004).

Columns and labels:
Human alphaherpesvirus 3 [1] = assay: Antiviral activity against Varicella-Zoster virus (thymidine kinase deficient) TK-(07/1); format: functional, organism-based
Human alphaherpesvirus 3 [2] = assay: Antiviral activity against Varicella-Zoster virus (YS); format: functional, organism-based
[3] = system: HEL (human embryonic lung); assay: Minimal cytotoxic concentration, required to alter microscopically detectable cell morphology
Human alphaherpesvirus 3 [4] = assay: Antiviral activity against Varicella-Zoster virus (OKA); format: functional, organism-based
[5] = system: HEL (human embryonic lung); assay: Cytotoxic concentration required to inhibit Hel cell growth

Structure (SMILES)	EC50 (Human alphaherpesvirus 3 [1])	EC50 (Human alphaherpesvirus 3 [2])	MCC [3]	EC50 (Human alphaherpesvirus 3 [4])	CC50 [5]
CCCCCCCc1ccc(-c2cc3cn([C@H]4C[C@H](O)[C@@H](CO)O4)c(=O)nc3s2)cc1	> 20000 nM	180 nM	50 µM	270 nM	> 200000 nM
CCc1ccc(-c2cc3cn([C@H]4C[C@H](O)[C@@H](CO)O4)c(=O)nc3s2)cc1	20000 nM	150 nM	> 200 µM	200 nM	> 200000 nM
CCCc1ccc(-c2cc3cn([C@H]4C[C@H](O)[C@@H](CO)O4)c(=O)nc3s2)cc1	> 16000 nM	60 nM	80 µM	90 nM	> 200000 nM
CCCCCc1ccc(-c2cc3cn([C@H]4C[C@H](O)[C@@H](CO)O4)c(=O)nc3s2)cc1	20000 nM	14 nM	50 µM	25 nM	> 200000 nM
CCCCCCCCc1ccc(-c2cc3cn([C@H]4C[C@H](O)[C@@H](CO)O4)c(=O)nc3s2)cc1	> 20000 nM	3400 nM	≥ 20 µM	–	> 200000 nM
CCCCCCCCc1cc2cn([C@H]3C[C@H](O)[C@@H](CO)O3)c(=O)nc2s1	> 5000 nM	5 nM	20 µM	2 nM	53000 nM
CCCCCCc1ccc(-c2cc3cn([C@H]4C[C@H](O)[C@@H](CO)O4)c(=O)nc3s2)cc1	> 50000 nM	43 nM	200 µM	80 nM	> 200000 nM
CCCCc1ccc(-c2cc3cn([C@H]4C[C@H](O)[C@@H](CO)O4)c(=O)nc3s2)cc1	> 3200 nM	20 nM	50 µM	28 nM	> 200000 nM
Nc1nc2c(ncn2COCCO)c(=O)[nH]1 [ACYCLOVIR]	40000 nM	–	> 200 µM	1100 nM	> 400000 nM
